From BindingDB's records for doi:10.1021/acs.jmedchem.6b01879 (China Pharmaceutical University, 2017) come the findings set out here.

The nature of the data set: Inhibition of ABCB1 in human K562/A02 cells assessed as potentiation of adriamycin-induced cytotoxicity by measuring compound concentration required for reduction of ADR IC50 after 48 hrs by MTT assay. A general note: Tetrazolium assays rely on reduction of a dye to a coloured formazan, in cell work by metabolically active cells.

pEC50: −log10 of the molar value.

The term pEC50 denotes −log10 of the EC50, conventionally taken in molar units. As to `COc1cc2c(cc1OC)CN(CCc1ccc(NC(=O)c3cccnc3NCc3ccncc3)cc1)CC2`, the pEC50 was 6.92. For the compound `O=C(Nc1ccc(N2CCOCC2)cc1)c1cccnc1NCc1ccncc1`, the pEC50 is 6.48.
